Experimental data as given in patent US20220016060A1, “USE OF SODIUM 2-(3-PENTYLPHENYL)ACETATE IN THE TREATMENT OF ALSTRÖM SYNDROME” (LIMINAL BIOSCIENCES LIMITED, priority 2018, published 2022).
Several values for one entry are separate records, joined by “and”; a condition that tells them apart may be missing. Equal entries are not always repeated.

Experiments:
Assay type in all cases: in vivo, human
[1] = test system: ALMS patients; experiment: HOMA-B based on C-peptide and fasting plasma glucose; settings: for Change from Baseline HOMA-B Based on C-Peptide and FPG, Mean / Change from Baseline HOMA-B Based on C-Peptide and FPG, Median: 800 mg
Procedure: (§1) The study was a Phase 2, single-centre, single-arm, open-label study of sodium 2-(3-pentylphenyl)acetate administered at a total daily oral dose of 800 mg for up to 72 weeks in subjects with ALMS was undertaken. The initial duration of the study was 24 weeks, and subjects were offered to enrol into an extension phase of 36 or 48 weeks. The schedule of study procedures for the enrolment, intervention, and assessments for participants is outlined in FIG. 1. Sodium 2-(3-pentylphenyl)acetate was formulated in soft gelatine capsules containing 200 mg of Sodium 2-(3-pentylphenyl)acetate (amorphous powder) per capsule, polyethylene glycol 400, National Formulary (NF), hydrochloric acid (for pH adjustment), and water. E) Homeostasis Model Assessment for Steady State Beta-Cell Function Based on C-Peptide and Fasting Plasma Glucose (HOMA-B [C-Peptide/FPG]) The effect of sodium 2-(3-pentylphenyl)acetate on HOMA-B (C-peptide/FPG) was assessed, and the results are presented in Table 24.

[2] = test system: ALMS patients; experiment: Cardiac MRI of left ventricular function (LVESV, LVEDV); settings: for Change from Baseline LVEDV, Mean (SD) / Change from Baseline LVEDV, Median / Change from Baseline LVESV, Mean (SD) / Change from Baseline LVESV, Median: 800 mg daily oral
Procedure: The study was a Phase 2, single-centre, single-arm, open-label study of sodium 2-(3-pentylphenyl)acetate administered at a total daily oral dose of 800 mg for up to 72 weeks in subjects with ALMS was undertaken. The initial duration of the study was 24 weeks, and subjects were offered to enrol into an extension phase of 36 or 48 weeks. The schedule of study procedures for the enrolment, intervention, and assessments for participants is outlined in FIG. 1.
Sodium 2-(3-pentylphenyl)acetate was formulated in soft gelatine capsules containing 200 mg of Sodium 2-(3-pentylphenyl)acetate (amorphous powder) per capsule, polyethylene glycol 400, National Formulary (NF), hydrochloric acid (for pH adjustment), and water.
The effect of sodium 2-(3-pentylphenyl)acetate on heart histology in ALMS patients was assessed by measuring left ventricular function (LVF). LVF measurements permit to quantify how well the left ventricle is able to pump blood through the body with each heartbeat, and is also a prognostic factor in acute myocardial infarction.

[3] = test system: ALMS patients; experiment: Fasting insulin; settings: for Change from Baseline Fasting Insulin, Mean / Change from Baseline Fasting Insulin, Median: 800 mg daily oral; for decrease of fasting insulin from baseline: Subject 826-001-003
Procedure: as §1, with “water.” for “water. E) Homeostasis Model Assessment for Steady State Beta-Cell Function Based on C-Peptide and Fasting Plasma Glucose (HOMA-B [C-Peptide/FPG]) The effect of sodium 2-(3-pentylphenyl)acetate on HOMA-B (C-peptide/FPG) was assessed, and the results are presented in Table 24.”

[4] = test system: ALMS patients; experiment: Fasting plasma glucose (FPG); settings: for Change from Baseline FPG, Mean / Change from Baseline FPG, Median / FPG: 800 mg daily oral; for FPG: individual subjects
Procedure: as §1, with “water.” for “water. E) Homeostasis Model Assessment for Steady State Beta-Cell Function Based on C-Peptide and Fasting Plasma Glucose (HOMA-B [C-Peptide/FPG]) The effect of sodium 2-(3-pentylphenyl)acetate on HOMA-B (C-peptide/FPG) was assessed, and the results are presented in Table 24.”

[5] = Subject 826-001-001, 204-day break in treatment
[6] = Subject 826-001-007, 32-day break in treatment
[7] = Subject 826-001-013, 30-day break in treatment

CCCCCc1cccc(CC(=O)[O-])c1.[Na+] [sodium 2-(3-pentylphenyl)acetate]
Change from Baseline HOMA-B Based on C-Peptide and FPG, Mean ([1]; EP Week 12 (Week 36), N 10): 1.70 | Change from Baseline HOMA-B Based on C-Peptide and FPG, Median ([1]; EP Week 12 (Week 36), N 10): 16.50 | Change from Baseline HOMA-B Based on C-Peptide and FPG, Mean ([1]; EP Week 24 (Week 48), N 9): 24.57 | Change from Baseline HOMA-B Based on C-Peptide and FPG, Median ([1]; EP Week 24 (Week 48), N 9): −1.90 | Change from Baseline HOMA-B Based on C-Peptide and FPG, Mean ([1]; EP Week 36 (Week 60), N 8): 1.42 | Change from Baseline HOMA-B Based on C-Peptide and FPG, Median ([1]; EP Week 36 (Week 60), N 8): 8.00 | Change from Baseline HOMA-B Based on C-Peptide and FPG, Mean ([1]; EP Week 48 (Week 72), N 3): 60.17 | Change from Baseline HOMA-B Based on C-Peptide and FPG, Median ([1]; EP Week 48 (Week 72), N 3): 89.40 | Change from Baseline HOMA-B Based on C-Peptide and FPG, Mean ([1]; Week 12, N 11): 52.58 | Change from Baseline HOMA-B Based on C-Peptide and FPG, Median ([1]; Week 12, N 11): 35.60 | Change from Baseline HOMA-B Based on C-Peptide and FPG, Mean ([1]; Week 24, N 12): −1.60 | Change from Baseline HOMA-B Based on C-Peptide and FPG, Median ([1]; Week 24, N 12): 0.60 | subjects in whom HOMA-B (C-peptide/FPG) increased from baseline ([1]; 9/12 subjects): 75.0% | reduction in HOMA-B (C-peptide/FPG) [1, 5]: 62.4 | reduction in HOMA-B (C-peptide/FPG) [1, 6]: 33.4 | reduction in HOMA-B (C-peptide/FPG) [1, 7]: 96.7 | subjects in whom LVESV increased or did not change from baseline ([2]; 9/12 subjects): 75.0% | subjects in whom LVEDV increased from baseline ([2]; 10/12 subjects): 83.3% | Change from Baseline LVEDV, Mean (SD) ([2]; EP Week 36 (Week 60), N=4): 7.75 (3.948) mL | Change from Baseline LVEDV, Median ([2]; EP Week 36 (Week 60), N=4): 8.50 mL | Change from Baseline LVESV, Mean (SD) ([2]; EP Week 36 (Week 60), N=4): 3.75 (2.500) mL | Change from Baseline LVESV, Median ([2]; EP Week 36 (Week 60), N=4): 3.50 mL | Change from Baseline LVEDV, Mean (SD) ([2]; Week 24, N=10): 4.40 (16.574) mL | Change from Baseline LVEDV, Median ([2]; Week 24, N=10): 5.00 mL | Change from Baseline LVESV, Mean (SD) ([2]; Week 24, N=10): 0.70 (9.650) mL | Change from Baseline LVESV, Median ([2]; Week 24, N=10): 3.00 mL | change in LVESV from baseline ([2]; after 60 weeks of treatment): strong trend toward an increase | mean increase in LVEDV from baseline ([2]; after 60 weeks of treatment, p=0.0294): 7.75 mL | LVESV relative to normal range ([2]; subject 826-001-015): Normalization of LVESV after treatment | LVEDV and LVESV relative to normal range ([2]; subjects 826-001-002 and 826-001-004, below normal at baseline): within the normal range after the treatment period | Change from Baseline Fasting Insulin, Mean ([3]; EP Week 12 (Week 36), N=10): -920.20 pmol/L | Change from Baseline Fasting Insulin, Median ([3]; EP Week 12 (Week 36), N=10): -53.50 pmol/L | Change from Baseline Fasting Insulin, Mean ([3]; EP Week 24 (Week 48), N=9): -1371.78 pmol/L | Change from Baseline Fasting Insulin, Median ([3]; EP Week 24 (Week 48), N=9): -24.00 pmol/L | Change from Baseline Fasting Insulin, Mean ([3]; EP Week 36 (Week 60), N=8): -1191.63 pmol/L | Change from Baseline Fasting Insulin, Median ([3]; EP Week 36 (Week 60), N=8): 7.00 pmol/L | Change from Baseline Fasting Insulin, Mean ([3]; EP Week 48 (Week 72), N=3): -3933.00 pmol/L | Change from Baseline Fasting Insulin, Median ([3]; EP Week 48 (Week 72), N=3): 193.00 pmol/L | increase in fasting insulin from baseline [3, 5]: 420 pmol/L | decrease of fasting insulin from baseline ([3]; after 24 weeks): ~30% | decrease of fasting insulin from baseline ([3]; after 72 weeks): > 96% | increase in fasting insulin from baseline ([3]; Subject 826-001-004, 30-day break in treatment): 298 pmol/L | increase in fasting insulin from baseline [3, 6]: 1970 pmol/L | increase in fasting insulin from baseline [3, 7]: 1160 pmol/L | Change from Baseline Fasting Insulin, Mean ([3]; Week 12, N=12): -18.92 pmol/L | Change from Baseline Fasting Insulin, Median ([3]; Week 12, N=12): 9.00 pmol/L | Change from Baseline Fasting Insulin, Mean ([3]; Week 24, N=12): -339.08 pmol/L | Change from Baseline Fasting Insulin, Median ([3]; Week 24, N=12): -86.00 pmol/L | Fasting Insulin ([3]; by-subject listing, ALMS subjects, EP Week 48 (Week 72)): 460 pmol/L and 600 pmol/L and 303 pmol/L | Change from Baseline FPG, Mean ([4]; EP Week 12 (Week 36), N=10): 0.63 mmol/L | Change from Baseline FPG, Median ([4]; EP Week 12 (Week 36), N=10): -0.10 mmol/L | Change from Baseline FPG, Mean ([4]; EP Week 24 (Week 48), N=10): 0.70 mmol/L | Change from Baseline FPG, Median ([4]; EP Week 24 (Week 48), N=10): -0.10 mmol/L | Change from Baseline FPG, Mean ([4]; EP Week 36 (Week 60), N=9): 1.49 mmol/L | Change from Baseline FPG, Median ([4]; EP Week 36 (Week 60), N=9): 0.00 mmol/L | Change from Baseline FPG, Mean ([4]; EP Week 48 (Week 72), N=3): -0.93 mmol/L | Change from Baseline FPG, Median ([4]; EP Week 48 (Week 72), N=3): 0.00 mmol/L | increase in FPG from baseline [4, 5]: 7.4 mmol/L | increase in FPG from baseline [4, 6]: 7.9 mmol/L | Change from Baseline FPG, Mean ([4]; Week 12, N=11): 0.30 mmol/L | Change from Baseline FPG, Median ([4]; Week 12, N=11): -0.40 mmol/L | Change from Baseline FPG, Mean ([4]; Week 24, N=12): 0.33 mmol/L | Change from Baseline FPG, Median ([4]; Week 24, N=12): 0.30 mmol/L | FPG ([4]; EP Week 12 (Week 36)): 18.0 mmol/L and 4.8 mmol/L and 4.3 mmol/L and 5.2 mmol/L and 9.1 mmol/L and 4.4 mmol/L and 6.5 mmol/L and 6.6 mmol/L and 5.5 mmol/L and 19.9 mmol/L | FPG ([4]; EP Week 24 (Week 48)): 23.3 mmol/L and 3.8 mmol/L and 4.7 mmol/L and 6.9 mmol/L and 10.2 mmol/L and 4.8 mmol/L and 5.7 mmol/L and 6.2 mmol/L and 5.6 mmol/L and 13.8 mmol/L | FPG ([4]; EP Week 36 (Week 60)): 22.7 mmol/L and 5.0 mmol/L and 4.6 mmol/L and 13.8 mmol/L and 5.3 mmol/L (2×) and 4.7 mmol/L and 8.6 mmol/L and 14.9 mmol/L | FPG ([4]; EP Week 48 (Week 72)): 12.5 mmol/L and 5.5 mmol/L and 4.7 mmol/L | FPG ([4]; Week 12): 22.8 mmol/L and 4.6 mmol/L and 4.3 mmol/L and 5.3 mmol/L and 16.9 mmol/L and 7.0 mmol/L and 5.5 mmol/L and 17.6 mmol/L and 6.5 mmol/L and 5.0 mmol/L and 4.7 mmol/L | FPG ([4]; Week 24): 12.9 mmol/L and 4.9 mmol/L and 4.7 mmol/L and 5.7 mmol/L and 11.1 mmol/L and 4.8 mmol/L and 7.2 mmol/L and 7.4 mmol/L and 22.6 mmol/L and 6.5 mmol/L and 13.5 mmol/L and 6.1 mmol/L
